Tested on: 695427-040-R-J1-PDC complex spheroid viability
Assay: Anticancer human tumor 695427-040-R-J1-PDC patient-derived colon adenocarcinoma cell line growth inhibition [RAS]
Conditions: for IC50: curve of first compound; for viability, T/C: stronger effect = lower value
Method in brief: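 Multi-cell-type spheroids: tumor cells plus HUVEC endothelial cells and mesenchymal stem cells. RAS-pathway inhibitors were combined with targeted agents, each dosed in half-log steps down from clinical Cmax, or from 10 microM when Cmax was unknown.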
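Note: viability read after seven days of drug exposure.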
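Throughout, for viability, T/C: 100% = DMSO vehicle control viability.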

**Q.** Which results are given for `CC(C)NCC(C(=O)N1CCN(c2ncnc3c2C(C)CC3O)CC1)c1ccc(Cl)cc1` (configuration not stated) + CCn1c(-c2cccnc2C(C)OC)c2c3cc(ccc31)N1CCOC(CC(NC(=O)C(C(C)C)N(C)C(=O)C3(F)CCN(C(=O)C#CC(C)(C)N(C)C)CC3)C(=O)N3CCCC(N3)C(=O)OCC(C)(C)C2)C1?
**A.** IC50 (second compound 0.000949 µM): > 10 µM; IC50 (second compound 0.003 µM): > 10 µM; IC50 (second compound 0.00949 µM): > 10 µM; IC50 (second compound 0.03 µM): > 10 µM; IC50 (second compound 0.0949 µM): > 10 µM; IC50 (second compound 0.3 µM): > 10 µM; viability, T/C (second compound 0.000949 µM, first compound 0.0316 µM): 86%; viability, T/C (second compound 0.000949 µM, first compound 0.1 µM): 91.1%; viability, T/C (second compound 0.000949 µM, first compound 0.316 µM): 91.7%; viability, T/C (second compound 0.000949 µM, first compound 1 µM): 68.2%; viability, T/C (second compound 0.000949 µM, first compound 3.16 µM): 62.6%; viability, T/C (second compound 0.000949 µM, first compound 10 µM): 60.8%; viability, T/C (second compound 0.003 µM, first compound 0.0316 µM): 103%; viability, T/C (second compound 0.003 µM, first compound 0.1 µM): 91.4%; viability, T/C (second compound 0.003 µM, first compound 0.316 µM): 65.9%; viability, T/C (second compound 0.003 µM, first compound 1 µM): 84.7%; viability, T/C (second compound 0.003 µM, first compound 3.16 µM): 74.7%; viability, T/C (second compound 0.003 µM, first compound 10 µM): 54.6%; viability, T/C (second compound 0.00949 µM, first compound 0.0316 µM): 113%; viability, T/C (second compound 0.00949 µM, first compound 0.1 µM): 89.5%; viability, T/C (second compound 0.00949 µM, first compound 0.316 µM): 59.9%; viability, T/C (second compound 0.00949 µM, first compound 1 µM): 85.2%; viability, T/C (second compound 0.00949 µM, first compound 3.16 µM): 63.4%; viability, T/C (second compound 0.00949 µM, first compound 10 µM): 63.5%; viability, T/C (second compound 0.03 µM, first compound 0.0316 µM): 91.6%; viability, T/C (second compound 0.03 µM, first compound 0.1 µM): 75.3%; viability, T/C (second compound 0.03 µM, first compound 0.316 µM): 81.5%; viability, T/C (second compound 0.03 µM, first compound 1 µM): 83.8%; viability, T/C (second compound 0.03 µM, first compound 3.16 µM): 59.2%; viability, T/C (second compound 0.03 µM, first compound 10 µM): 56.9%; viability, T/C (second compound 0.0949 µM, first compound 0.0316 µM): 88.5%; viability, T/C (second compound 0.0949 µM, first compound 0.1 µM): 88.7%; viability, T/C (second compound 0.0949 µM, first compound 0.316 µM): 72.6%; viability, T/C (second compound 0.0949 µM, first compound 1 µM): 70.8%; viability, T/C (second compound 0.0949 µM, first compound 3.16 µM): 77.1%; viability, T/C (second compound 0.0949 µM, first compound 10 µM): 71.2%; viability, T/C (second compound 0.3 µM, first compound 0.0316 µM): 105%; viability, T/C (second compound 0.3 µM, first compound 0.1 µM): 72.8%; viability, T/C (second compound 0.3 µM, first compound 0.316 µM): 79.8%; viability, T/C (second compound 0.3 µM, first compound 1 µM): 74.2%; viability, T/C (second compound 0.3 µM, first compound 3.16 µM): 57%; viability, T/C (second compound 0.3 µM, first compound 10 µM): 56.2%

Reference: PubChem BioAssay AID2060888 (Molecular Pharmacology Branch, DTP, NCI, 2025)
